Assay results reported in article PMC12563652 (International Journal of Molecular Sciences, 2025).
Where “and” joins values, the source holds several entries; their conditions need not be identical. Equal values may be shown once. Read-outs that look alike come from different tables or passages of the source. Marks after values point to notes of the source that are not given here.

What was measured:
[1] = molecular target: T1, human TAAR1 (Homo sapiens, UniProt Q96RJ0); settings: at 10^−4 M; cited from earlier work
T1 sequence (Q96RJ0 1-339): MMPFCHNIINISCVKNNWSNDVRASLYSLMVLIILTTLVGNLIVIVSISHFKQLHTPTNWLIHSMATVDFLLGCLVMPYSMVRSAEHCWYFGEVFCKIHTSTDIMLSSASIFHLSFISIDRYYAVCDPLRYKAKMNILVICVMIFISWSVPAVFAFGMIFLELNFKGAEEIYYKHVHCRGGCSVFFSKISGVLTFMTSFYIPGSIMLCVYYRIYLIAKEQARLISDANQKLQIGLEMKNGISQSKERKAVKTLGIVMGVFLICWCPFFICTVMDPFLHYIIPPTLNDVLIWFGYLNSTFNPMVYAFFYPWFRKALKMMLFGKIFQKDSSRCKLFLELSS

[2] = molecular target: T2, α2A-adrenoceptor (Homo sapiens, UniProt P08913); settings: cited from earlier work
T2 sequence (P08913 1-465): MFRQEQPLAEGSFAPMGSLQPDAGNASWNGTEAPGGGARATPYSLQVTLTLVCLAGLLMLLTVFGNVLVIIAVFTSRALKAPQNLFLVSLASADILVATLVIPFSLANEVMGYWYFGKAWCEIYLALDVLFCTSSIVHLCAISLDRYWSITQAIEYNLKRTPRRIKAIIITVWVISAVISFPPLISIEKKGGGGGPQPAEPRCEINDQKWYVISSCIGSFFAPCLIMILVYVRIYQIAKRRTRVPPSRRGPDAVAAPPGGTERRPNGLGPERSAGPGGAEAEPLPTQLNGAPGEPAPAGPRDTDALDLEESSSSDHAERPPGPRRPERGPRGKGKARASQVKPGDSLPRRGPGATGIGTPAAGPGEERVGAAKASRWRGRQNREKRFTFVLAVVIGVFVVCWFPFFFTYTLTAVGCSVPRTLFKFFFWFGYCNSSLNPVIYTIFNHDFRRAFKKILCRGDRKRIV

[3] = molecular target: T3, α2B-adrenoceptor (Homo sapiens, UniProt P18089); settings: read-out: α2B Ant IC50; cited from earlier work
T3 sequence (P18089 1-450): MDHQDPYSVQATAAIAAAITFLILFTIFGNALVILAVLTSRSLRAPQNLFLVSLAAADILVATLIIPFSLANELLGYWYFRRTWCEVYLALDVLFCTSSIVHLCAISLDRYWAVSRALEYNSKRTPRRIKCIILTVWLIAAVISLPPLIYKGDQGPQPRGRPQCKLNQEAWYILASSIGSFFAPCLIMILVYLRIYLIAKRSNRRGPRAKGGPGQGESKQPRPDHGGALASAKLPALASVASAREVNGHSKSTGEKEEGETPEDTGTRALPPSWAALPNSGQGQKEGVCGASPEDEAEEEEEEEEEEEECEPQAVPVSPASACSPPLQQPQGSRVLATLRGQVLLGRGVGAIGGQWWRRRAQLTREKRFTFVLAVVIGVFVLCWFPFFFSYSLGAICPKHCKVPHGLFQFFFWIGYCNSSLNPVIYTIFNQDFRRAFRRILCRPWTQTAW

[4] = rat, intraperitoneal administration; cited from earlier work
[5] = molecular target: T1, human TAAR1; experiment: TAAR1 agonist activity, Hit Hunter cAMP assay; assay type: cell-based
Experimental: The intrinsic activity of the TAAR1 receptor will be assessed according to the manufacturer’s protocol, using the Hit Hunter® cAMP assay by DiscoverX. This assay enables monitoring of GPCR activation in cells stably expressing TAAR1 by measuring changes in the level of the secondary messenger, cAMP. The cAMP Hunter cell lines were cultured from frozen stocks following standard procedures. Cells were plated in white-walled 384-well microplates at a total volume of 20 µL per well and incubated at 37 °C for the required period before analysis. To assess agonist activity, cells were exposed to the test compound to trigger a response. The culture medium was then removed and replaced with 15 µL of a 2:1 mixture of HBSS and 10 mM Hepes containing the cAMP XS+ antibody reagent. Sample stocks were diluted to prepare a 4× concentration in assay buffer. Subsequently, 5 µL of the 4× sample was added to each well, and the plates were incubated at either 37 °C or room temperature for 30 or 60 min. The vehicle was used at a concentration of 1%. After incubating the compounds for the required time, the assay signal was produced by adding 20 µL of the cAMP XS+ ED/CL lysis cocktail and incubating for one hour. This was followed by a three-hour incubation with 20 µL of the cAMP XS+EA reagent at room temperature. After signal development, the microplates were read using a PerkinElmer Envision Reader to detect chemiluminescence.

[6] = test system: platelet aggregation in rat whole blood; experiment: In vitro collagen-induced platelet aggregation in rat whole blood (impedance aggregometry); assay type: cell-based; settings: collagen 1.6 µg/mL
Experimental: In vitro platelet aggregation assays were conducted using freshly collected whole blood from rats, utilizing the Multiplate platelet function analyzer (Roche Diagnostics, Mannheim, Germany)—a five-channel device that measures electrical impedance, following methods described previously. Upon stimulation, platelets adhere to and aggregate on dual metal sensors within the test cuvette, causing an increase in electrical resistance, which corresponds to the number of platelets attached to the electrodes.
Blood was collected from the carotid artery of the rat into tubes coated with hirudin (S-Monovette, Sarstedt, Germany). A volume of 300 μL of the anticoagulated blood was mixed with 300 μL of prewarmed isotonic saline that contained the test compound or a vehicle control (0.1% DMSO) and incubated at 37 °C for 3 min under continuous stirring. Aggregation was triggered by adding collagen (final concentration: 1.6 µg/mL). Platelet activity was monitored for 6 min. Multiplate V2.04 software calculated the area under the curve (AUC) for each measurement to determine average platelet response.

[7] = test system: TAAR1; settings: cited from earlier work
[8] = test system: Danio rerio larvae; experiment: Nile red fluorescence fat metabolism assay in zebrafish larvae; assay type: in vivo; settings: 20 µg/mL, 48 h incubation of larvae
Experimental: The study was conducted based on the method described earlier by Jones et al.. Starting at 3 days after fertilization (dpf), larvae were placed into 6-well plates and incubated with the test solutions (compounds in E3: JP-14 at a concentration of 10 μg/mL or resveratrol or E3 alone) for 48 h. Resveratrol solution (20 μg/mL) was used as the reference compound. After 24 h, the solutions were replaced with new ones containing Nile red dye (9-diethylamino-5H-benzo[α]phenoxazine-5-one, Pol-aura, Poland) at a concentration of 100 ng/mL. Nile red is a selective fluorescent lipid dye used to stain lipid droplets. Incubation with the dye was therefore 24 h. Stock solution of Nile red was prepared earlier by dissolving it in acetone to a concentration of 500 μg/mL. After the incubation period, the larvae were rinsed 3 times with 0.1 M phosphate-buffered, pH 7.4 (PBS, Sigma-Aldrich, Schnelldorf, Germany) and anesthetized with cold […] tricaine solution (Sigma-Aldrich, Schnelldorf, Germany). Next, they were visualized under a fluorescence microscope (Zeiss.Discovery.V8, Zeiss, Oberkochen, Germany) and analyzed with ImageJ FIJI program (version 2.17.0).

[9] = test system: Danio rerio larvae; experiment: Fructose-induced lipid disturbance in zebrafish larvae (Oil Red O); assay type: in vivo; settings: 20 µg/mL with 4% fructose, 24 h
Experimental: Zebrafish larvae 4 dpf were incubated for another 24 h with 4% fructose (final solution) in embryo medium to induce metabolic disorders. Tested solutions (compounds in E3: JP-14 at concentration of 20 μg/mL or resveratrol of 40 μg/mL) were added to fructose solution (8% in E3). The final concentration of JP-14 was 10 μg/mL or resveratrol of 20 μg/mL. The control group was incubated with E3 only. Incubation was carried out in a 6-well plate (10 larvae/well) to which 3 mL of liquid was added per well. Larvae were then collected, euthanized with tricaine, and transferred to 4% formaldehyde solution. After 24 h, larvae were washed 3 times with PBS (Sigma-Aldrich, Germany) and stained for neutral lipids, similar to previous studies. Larvae incubated for 1 h in a solution of 0.25% oil red O (ORO, Merck, Darmstadt, Germany) in 60% isopropanol (Merck, Germany). The samples were then rinsed three times with 60% isopropanol and washed 6 times with PBS, then imaged on a microscope (OPTA-TECH MN16, Warszawa, Poland) and analyzed with the ImageJ FIJI program. […] Next, the samples were centrifuged (10 min, 3000 rpm, MPW-260R, MPW Med Instruments, Warszawa, Poland), and the amount of dye in supernatant was determined spectrophotometrically (MuLTISKAN.GO, Thermo Fisher Scientific Inc. Waltham, MA, USA) at a wavelength of 495 nm.

[10] = molecular target: α1-adrenoceptor; experiment: Competitive radioligand binding, [3H]prazosin, rat cerebral cortex; settings: n.a. = no activity at 10–5 M
Experimental: The competitive radioligand-binding assay assessed affinity for α1- and α2-adrenoceptors. Experiments were carried out in the rat cerebral cortex. […] The membrane preparation and assay technique followed the previously reported protocol. Radioactivity was measured using the MicroBeta2 scintillation counter (PerkinElmer, Kraków, Poland). The data was adjusted to match a single-site curve-fitting formula using Prism 8 (GraphPad Software, La Jolla, CA, USA), and the Ki values were estimated by means of the Cheng–Prusoff formula.

[11] = molecular target: α2-adrenoceptor; experiment: Competitive radioligand binding, [3H]clonidine, rat cerebral cortex; settings: n.a. = no activity at 10–5 M
Experimental: The competitive radioligand-binding assay assessed affinity for α1- and α2-adrenoceptors. Experiments were carried out in the rat cerebral cortex. […] The membrane preparation and assay technique followed the previously reported protocol [10]. Radioactivity was measured using the MicroBeta2 scintillation counter (PerkinElmer, Kraków, Poland). The data was adjusted to match a single-site curve-fitting formula using Prism 8 (GraphPad Software, La Jolla, CA, USA), and the Ki values were estimated by means of the Cheng–Prusoff formula.

[12] = molecular target: T3, α2B-adrenoceptor; experiment: α2B-adrenoceptor intrinsic activity, antagonist mode (AequoScreen); assay type: cell-based; settings: n.a. = no activity at 10–5 M; read-out: α2B Ant IC50
Experimental: (§1) The determination of intrinsic activity will be performed in accordance with the manufacturer’s Aequoscreen methodology—Perkin Elmer.
(§2) The cell density in the 96-well format was 5000 cells per well. Cell preparation for the assay was performed according to the manufacturer’s instructions for AequoScreen (PerkinElmer, Waltham, MA, USA). […] The cells suspension was applied onto the ligands with the injectors of the POLARstar optima reader (BMG Labtech, Ortenberg, Germany). […] The concentration and dilution series having four replicates were prepared as instructed in the AequoScreen Starter Kit Manual (PerkinElmer, Waltham, MA, USA). The wells received cell injections along with either the standard agonist or the compounds being evaluated, while the POLARstar optima reader documented the emitted light over a duration of 20 s. In the antagonist evaluation, cells were administered (50 μL) into the assay plate alongside antagonist solutions (50 μL). A single concentration of agonist (oxymetazoline) was injected (50 μL, final concentration EC80) into the preincubated (15–20 min) plate with cells and antagonist, and the emitted light was recorded for 20 s.

[13] = molecular target: T4, 5-HT2C serotoninergic receptor (Homo sapiens, UniProt P28335); experiment: 5-HT2C intrinsic activity, antagonist mode (AequoScreen calcium mobilization); assay type: cell-based
T4 sequence (P28335 33-458): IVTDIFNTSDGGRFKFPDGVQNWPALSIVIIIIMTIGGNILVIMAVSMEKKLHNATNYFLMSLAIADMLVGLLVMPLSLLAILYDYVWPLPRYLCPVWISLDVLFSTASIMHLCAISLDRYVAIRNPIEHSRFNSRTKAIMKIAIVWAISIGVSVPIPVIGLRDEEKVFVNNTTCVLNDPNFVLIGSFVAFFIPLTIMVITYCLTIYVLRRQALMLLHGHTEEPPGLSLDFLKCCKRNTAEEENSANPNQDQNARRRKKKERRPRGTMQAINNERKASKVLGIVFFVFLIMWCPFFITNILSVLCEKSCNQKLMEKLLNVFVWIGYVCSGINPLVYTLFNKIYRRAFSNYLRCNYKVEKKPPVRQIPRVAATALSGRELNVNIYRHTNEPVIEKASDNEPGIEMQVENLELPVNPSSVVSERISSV
Experimental: as §1, §2

**Q.** For 4-OH-guanabenz, which “TAAR1 Ago Emax (max Ago)” value [1] is on record?
**A.** 34%/ (10^−4M) ^a

**Q.** What about the α2A-adrenoceptor activation ([2]; partial agonist) of the same molecule?
**A.** 30%

**Q.** And the EC50 ([2]; read-out: α2A Ago EC50)?
**A.** 0.316 µM

**Q.** What about the IC50 [3] of the same molecule?
**A.** 0.33 µM

**Q.** What about the “highest (peak) level in brain” value [4] of the same molecule?
**A.** 64.5 ng/g

**Q.** What about the tmax in brain [4] of the same molecule?
**A.** 15 min

**Q.** Which results are given for `N=C(N)N/N=C/c1c(Cl)cccc1Cl` [guanabenz]?
**A.** TAAR1 Ago Emax ([5]; % of maximal response induced by the full agonist tyramine, listed as GNB): 60%; EC50 ([5]; cAMP accumulation, n.a. = no activity at 10–5 M, read-out: TAAR1 Ago EC50): 0.3 µM and 0.301 µM; Emax ([5]; read-out: TAAR1 Ago Emax, % of maximal response induced by the full agonist tyramine): 50%; increase of collagen-induced platelet aggregation ([6]; 10 µM): 31.81%; increase of collagen-induced platelet aggregation ([6]; 100 µM): 22.73%; EC50 [7]: 0.0085 µM; highest (peak) level in brain [4]: 183.2 ng/g; tmax in brain [4]: 60 min

**Q.** What does the source list for `Oc1ccc(/C=C/c2cc(O)cc(O)c2)cc1` [resveratrol]?
**A.** Nile red detectable fat [8]: slightly stronger effect; fructose-induced yolk enlargement [9]: Comparable effects

**Q.** Which Ki [10] does the source give for `Cc1ccc(N(CC2=NCCN2)c2cccc(O)c2)cc1` [PHT, phentolamine] here?
**A.** 0.0109 ± 0.0008 µM

**Q.** What does the source list for `COc1ccc(F)c(/C=N/NC(=N)N)c1F` [8 (JP10)]?
**A.** Ki [11]: 0.232 ± 0.0085 µM; IC50 [12]: 0.22 µM

**Q.** With `CC[C@@H](CO)NC(=O)[C@@H]1C=C2c3cccc4c3c(cn4C)C[C@H]2N(C)C1` [MSE, methysergide] as the molecule, how does the EC50 [13] read?
**A.** 0.0011 ± 0.0001 µM
